Data from patent US10947196B2, “Beta adrenergic agonist and methods of using the same” (CURASEN THERAPEUTICS, INC., priority 2019, dated 2021).
Like-named read-outs stand apart in the source and are kept apart here.

Key:
[1] = biological target: β1-adrenergic receptor (Homo sapiens (Human), UniProt P08588); assay: cAMP Gs dynamic HTRF assay, β1 expressing CHO cells; assay type: cell-based; details: B1-AR
Method: (§1) cAMP homogeneous time-resolved fluorescence (HTRF). Compound efficacy was determined using the cAMP Gs dynamic HTRF assay (Cisbio, catalog #62AM4PEC) largely following the manufacturer's instructions, also detailed below.
(§2) Compound preparation. […] Standard serial dilution curves were 10-point, 5-fold dilutions starting from a highest concentration of 10 μM. […] Assay plates were centrifuged at 500×g for 10 seconds. Compounds and IBMX were prepared at 2× final dose to compensate for addition of cells.
(§3) Cell preparation. 1× stimulation buffer, washing PBS (Dulbecco's phosphate-buffered saline, −Mg −Ca; Caisson Labs, catalog #PBL01), assay PBS (Dulbecco's phosphate-buffered saline, +Mg, +Ca; Caisson Labs, catalog #PBL02) and Versene (0.02% EDTA disodium salt solution in PBS without calcium or magnesium; Caisson Labs, catalog #EDL01) were pre-warmed to 37° C. Cells expressing beta-adrenergic receptor were washed in washing PBS to remove growth medium and then released from the surface by incubating with Versene for 5-10 minutes at 37° C. Cells were harvested using assay PBS, counted manually by hemocytometer or by an automated cell counter, pelleted by centrifugation (200×g, 5 minutes) and resuspended in 37° C. 1× stimulation buffer to a final density of 1.5×10^6 cells/mL. 5 μL of the suspended cell solution (7500 cell total) were added to all wells of the 384 well assay plate, the assay plate was covered with an Axygen® plate seal (Corning PCR-SP) and incubated in a humidified 37° C. environment supplemented with 5% CO2 for 30 minutes.
(§4) HTRF reagent addition, reading and data analysis. After 30 minutes of cell stimulation with test compound, the assay plates were centrifuged at 500×g for 10 seconds, and incubation was stopped with the addition of 5 μL cAMP-D2 acceptor, diluted 1:21 in detection and lysis buffer 2 (Cisbio 62CL2FDF) was added to all cells. Subsequently, 5 μL Anti-cAMP-Eu Donor, diluted 1:21 in detection and lysis buffer 2, was added to cells. Plates were sealed and reactions gently ‘vortexed’ at 900 rpm on a Heidolph Titramax 1000 for at least 30 minutes at room temperature. Plates were centrifuged again at 500×g for 10 seconds, and HTRF was measured using a Tecan Spark plate reader at 50 flashes per well. […] Potency estimates (EC50) were derived from the four-parameter nonlinear regression of the concentration-effect curve and an estimate of relative efficacy was determined by comparing the magnitude of the test compound HTRF signal window (min−max dose) with the signal window of the full agonist control, isoproterenol.

[2] = biological target: β2 adrenergic receptor (Homo sapiens (Human), UniProt P07550); assay: cAMP Gs dynamic HTRF assay, β2 expressing CHO cells; assay type: cell-based; details: B2-AR
Sequence of β2 adrenergic receptor (P07550 whole entry, species assumed): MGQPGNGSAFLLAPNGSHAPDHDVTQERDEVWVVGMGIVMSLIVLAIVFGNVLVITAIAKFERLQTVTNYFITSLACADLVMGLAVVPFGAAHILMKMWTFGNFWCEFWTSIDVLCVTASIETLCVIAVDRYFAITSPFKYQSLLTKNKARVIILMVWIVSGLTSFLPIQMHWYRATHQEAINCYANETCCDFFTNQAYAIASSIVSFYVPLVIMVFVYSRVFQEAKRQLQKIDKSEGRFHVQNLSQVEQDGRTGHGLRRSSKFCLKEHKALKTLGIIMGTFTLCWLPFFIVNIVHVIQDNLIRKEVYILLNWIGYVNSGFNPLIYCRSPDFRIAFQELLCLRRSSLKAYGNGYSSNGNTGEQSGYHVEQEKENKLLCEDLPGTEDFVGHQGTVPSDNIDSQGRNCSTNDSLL
Method: as §1, §2, §3, §4

[3] = CHO-K cells, read-out: Average EC50 [Receptor subtype: B1-AR, Cell type: CHO-K]
[4] = CHO-K1 (HitHunter), read-out: Average pEC50 [Receptor subtype: B2-AR, Cell type: CHO-K1 (HitHunter)] (converted)
[5] = CHO-K cells, read-out: Average EC50 [Receptor subtype: B2-AR, Cell type: CHO-K]
[6] = CHO-K1 (HitHunter), read-out: Average pEC50 [Receptor subtype: B1-AR, Cell type: CHO-K1 (HitHunter)] (converted)

Sequence of β1-adrenergic receptor (P08588 whole entry, species assumed): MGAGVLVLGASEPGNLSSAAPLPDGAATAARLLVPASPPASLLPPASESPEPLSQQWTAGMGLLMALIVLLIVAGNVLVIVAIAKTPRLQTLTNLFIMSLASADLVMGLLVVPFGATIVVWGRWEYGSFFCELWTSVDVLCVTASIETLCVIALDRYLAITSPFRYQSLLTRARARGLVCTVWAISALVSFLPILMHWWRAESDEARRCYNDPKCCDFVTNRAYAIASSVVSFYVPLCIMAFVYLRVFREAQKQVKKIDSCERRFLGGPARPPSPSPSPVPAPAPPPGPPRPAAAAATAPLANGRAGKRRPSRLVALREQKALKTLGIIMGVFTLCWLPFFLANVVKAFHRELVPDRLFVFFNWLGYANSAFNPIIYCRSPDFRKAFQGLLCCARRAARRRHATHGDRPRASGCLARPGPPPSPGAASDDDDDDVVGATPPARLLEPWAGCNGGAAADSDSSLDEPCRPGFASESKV

| Structure (SMILES) | Average pEC50 [Receptor subtype: B1-AR; Cell type: CHO-K1 (HitHunter)] ([1]; CHO-K1 (HitHunter)) | EC50 [2, 4] [µM] | EC50 [1, 6] [µM] | EC50 [1, 3] [µM] | EC50 [2, 5] [µM] |
| --- | --- | --- | --- | --- | --- |
| CC(C)(C)NC[C@@H](O)c1cccc(OC(F)(F)F)n1 [Compound 03-186] | – | 0.1 to 1 | > 1 | > 1 | 0.1 to 1 |
| CC(C)(C)NC[C@H](O)c1cccc(OC(C)(C)C)n1 [Compound 03-196] | – | < 0.01 | 0.01 to 0.1 | – | – |
| CC(C)(C)NC[C@H](O)c1cccc(C2CCCC2)n1 [Compound 03-198] | – | 0.01 to 0.1 | > 1 | – | – |
| CC(C)(C)NC[C@@H](O)c1ccnc(C(F)(F)F)c1 [Compound 03-211] | – | 0.1 to 1 | 0.1 to 1 | – | – |
| CC(C)(C)NC[C@H](O)c1ccc(C#N)cn1 [Compound 03-212] | – | 0.1 to 1 | > 1 | – | – |
| CC(C)(C)NC[C@H](O)c1cccc(-n2ccnc2)n1 [Compound 03-213] | – | 0.01 to 0.1 | > 1 | – | – |
| CC(C)(C)NC[C@H](O)c1cccc(Cl)n1 [Compound 03-231] | – | 0.01 to 0.1 | > 1 | – | – |
| CC(C)Nc1cccc([C@H](O)CNC(C)(C)C)n1 [Compound 03-232] | – | 0.01 to 0.1 | 0.01 to 0.1 | – | – |
| CC(=O)Nc1cccc([C@H](O)CNC(C)(C)C)n1 [Compound 03-239] | – | 0.01 to 0.1 | 0.1 to 1 | – | – |
| CC(C)(C)NC[C@@H](O)c1cccc(-c2ccc[nH]2)n1 [Compound 03-244] | – | 0.01 to 0.1 | 0.1 to 1 | – | – |

Now from value to compound, other results behind:

| Average pEC50 [Receptor subtype: B1-AR; Cell type: CHO-K1 (HitHunter)] ([1]; CHO-K1 (HitHunter)) | EC50 [2, 4] [µM] | EC50 [1, 6] [µM] | Structure (SMILES) | EC50 [1, 3] [µM] | EC50 [2, 5] [µM] |
| --- | --- | --- | --- | --- | --- |
| D (D < 6) | > 1 | – | CC(C)(COc1ccccc1)NC[C@@H](O)c1cccc(C(F)(F)F)n1 [Compound 03-185] | > 1 | > 1 |
| – | < 0.01 | 0.01 to 0.1 | CC(C)(C)NC[C@H](O)c1cccc(-c2cnn[nH]2)n1 [Compound 03-200] | – | – |
| – | < 0.01 | < 0.01 | CC(C)(C)NC[C@H](O)c1cccc(C2(C#N)CC2)n1 [Compound 03-206] | – | – |
| – | < 0.01 | < 0.01 | CC(C)(C)NC[C@H](O)c1cccc(C(C)(C)C#N)n1 [Compound 03-207] | – | – |
| – | < 0.01 | 0.1 to 1 | CC(C)(C)NC[C@H](O)c1cccc(-n2cccn2)n1 [Compound 03-214] | – | – |
| – | 0.01 to 0.1 | > 1 | Cn1ccc(-c2cccc([C@@H](O)CNC(C)(C)C)n2)n1 [Compound 03-216] | – | – |
| – | 0.01 to 0.1 | > 1 | CC(C)(C)NC[C@@H](O)c1cccc(-c2ccncc2)n1 [Compound 03-220] | – | – |
| – | < 0.01 | 0.01 to 0.1 | CC(C)(C)NC[C@H](O)c1cccc(-c2ccncc2)n1 [Compound 03-221] | – | – |
| – | 0.1 to 1 | 0.1 to 1 | CC(C)(C)NC[C@@H](O)c1cccc(-n2cccn2)n1 [Compound 03-225] | – | – |
| – | 0.1 to 1 | > 1 | Cn1ccc(-c2cccc([C@H](O)CNC(C)(C)C)n2)n1 [Compound 03-226] | – | – |
| – | > 1 | > 1 | CC(C)(C)NC[C@@H](O)c1cccc(NC2CCC2)n1 [Compound 03-229] | – | – |
| – | 0.01 to 0.1 | 0.01 to 0.1 | CC(C)(C)NC[C@@H](O)c1cccc(C2=CCCC2)n1 [Compound 03-234] | – | – |
| – | > 1 | > 1 | O[C@H](CNC1(C(F)(F)F)CC1)c1cccc(C(F)(F)F)n1 [Compound 03-235] | – | – |
| – | > 1 | > 1 | CC(C)(C)NC[C@H](O)c1cccnc1-n1ccnn1 [Compound 03-241] | – | – |
